Here are results for 9 molecules from patent US11708381B2, “Inhibitors of androgen receptor signaling” (XAVIER UNIVERSITY OF LOUISIANA, priority 2016, dated 2023).

One test concerns 22RV1 cells. Briefly: Antiproliferative activity, resazurin assay, 22RV1 cells. To be noted: 10^−6 M, 22RV1 cells, 72 h incubation. Format: cell-based. As for the experimental part:
(§1) LNCaP95 and 22RV1 are prostate cancer cell lines that express high level of AR-V7 and other AR-Vs, and are enzalutamide-resistant. LNCaP95 cells were maintained in RPMI1640 medium with charcoal-stripped serum (CSS). 22Rv1 cells were maintained in RPMI1640 medium with 10% FBS. Cells were seeded in 96-well plates (5×10^3 cells/well) containing 50 μL growth medium for 24 hrs. After medium removal, 100 μL fresh medium containing individual compound at different concentrations was added to each well and incubated at 37° C. for 72 h. Then 20 μL of resazurin was added for 2 h before recording fluorescence at 560 nm (excitation) and 590 nm (emission) using a Victor microtiter plate fluorometer (Perkin-Elmer, USA). The IC50 was defined as the compound concentration required for inhibiting cell proliferation by 50%, in comparison with cells treated with the maximum amount of DMSO (0.25%) and considered as 100% viability.
(In general: Resazurin is reduced to fluorescent resorufin, in cell work by metabolically active cells.)
On to `O=C(Nc1ccc(C(F)(F)F)cc1F)c1cc(F)ccc1O`, for which the “Inhibitory rate at 10^−6 M in 22RV1 cells” value (“Inhibitory rate at 10^−6 M” below) is 12.4%.
On the same count and under the same terms, then `O=C(Nc1ccc(C(F)(F)F)cc1F)c1cc(F)c(F)cc1O`, with 52.7%.
As to `O=C(Nc1ccc(C(F)(F)F)cc1Cl)c1cc(F)ccc1O`, the “Inhibitory rate at 10^−6 M” value is recorded as 14.5%.
Consider `N#Cc1cc(NC(=O)c2cc(F)ccc2O)ccc1C(F)(F)F`, for which the “Inhibitory rate at 10^−6 M” value was determined as 21.8%.
Turning to `N#Cc1ccc(NC(=O)c2cc(F)ccc2O)c(F)c1`, the “Inhibitory rate at 10^−6 M” value was 55.3%.
On to `O=C(Nc1ccc([N+](=O)[O-])cc1F)c1cc(F)ccc1O`, for which the “Inhibitory rate at 10^−6 M” value is 43.9%.
Same read-out and setting: for `O=C(Nc1ccc(C(F)(F)F)c(C(F)(F)F)c1)c1cc(F)ccc1O` [drawing 30] the value was 15.7%; for Niclosamide [reference compound], 51.3%.

The same test, now with this note: Homo sapiens; enzalutamide-resistant 22RV1 cells, 72 h, cell proliferation.
The IC50 is the concentration that gives 50% inhibition. Turning to `O=C(Nc1ccc(C(F)(F)F)cc1F)c1cc(F)ccc1O`, the IC50 amounted to 0.121 µM.
For `O=C(Nc1ccc(C(F)(F)F)cc1F)c1cc(F)c(F)cc1O`, inhibition was half-maximal at 0.382 µM (IC50).
Consider `O=C(Nc1ccc(C(F)(F)F)cc1Cl)c1cc(F)ccc1O`, for which inhibition was half-maximal at 0.135 µM (IC50).
Take `N#Cc1cc(NC(=O)c2cc(F)ccc2O)ccc1C(F)(F)F`: the half-inhibitory concentration (IC50) amounted to 0.195 µM.
`N#Cc1ccc(NC(=O)c2cc(F)ccc2O)c(F)c1` yielded an IC50 of 0.414 µM.
The molecule `O=C(Nc1ccc([N+](=O)[O-])cc1F)c1cc(F)ccc1O` displayed an IC50 of 0.244 µM.

Staying with this test, now noted: enzalutamide-resistant 22RV1 cells, 72 h, cell proliferation.
Niclosamide [reference compound] gave an IC50 of 0.284 µM.

In a further test the test system is AR-V7. The test can be described thus: Downregulation of AR-V7 in LNCaP95 cells. The format is cell-based. The settings on record: LNCaP95, enzalutamide-resistant prostate cancer cell line (FIG. 10).
For `O=C(Nc1ccc(C(F)(F)F)c(C(F)(F)F)c1)c1cc(F)ccc1O` [ARi 4], the “downregulation of AR-V7” value was “dose-dependent downregulation”.

The test system of the next test is AR-V7. The test can be described thus: Downregulation of AR-V7 in 22RV1 cells. The format is cell-based. The settings on record: 22RV1, enzalutamide-resistant prostate cancer cell line (FIG. 11).
As to `O=C(Nc1ccc(C(F)(F)F)c(C(F)(F)F)c1)c1cc(F)ccc1O` [ARi 4], the “downregulation of AR-V7” value was “dose-dependent downregulation”.

Another test concerns AR. The test can be described thus: Downregulation of AR in LNCaP95 cells. The format is cell-based. The settings on record: LNCaP95, enzalutamide-resistant prostate cancer cell line (FIG. 10).
In the case of `O=C(Nc1ccc(C(F)(F)F)c(C(F)(F)F)c1)c1cc(F)ccc1O` [ARi 4], the “downregulation of AR” value was “dose-dependent downregulation”.

The test system of another test is LNCaP95 cells. The test can be described thus: Antiproliferative activity, resazurin assay, LNCaP95 cells. The format is cell-based. To be noted: LNCaP-95; enzalutamide-resistant LNCaP95 cells, 72 h, cell proliferation; read-out: IC50 (μM) LCaP95. As for the experimental part:
as §1
For the molecule `O=C(Nc1ccc(C(F)(F)F)cc1F)c1cc(F)ccc1O`, the IC50 stood at 0.152 µM.
As for `O=C(Nc1ccc(C(F)(F)F)cc1F)c1cc(F)c(F)cc1O`, the half-maximal inhibitory concentration (IC50) was 0.199 µM.
The same measure, in the same setting: then `O=C(Nc1ccc(C(F)(F)F)cc1Cl)c1cc(F)ccc1O`, with 0.148 µM; and `N#Cc1cc(NC(=O)c2cc(F)ccc2O)ccc1C(F)(F)F`, with 0.161 µM.
The same measure, in the same setting: for `N#Cc1ccc(NC(=O)c2cc(F)ccc2O)c(F)c1` the value was 0.397 µM; for `O=C(Nc1ccc([N+](=O)[O-])cc1F)c1cc(F)ccc1O`, 0.206 µM; for `O=C(Nc1ccc(C(F)(F)F)c(C(F)(F)F)c1)c1cc(F)ccc1O` [drawing 30], 0.13 µM.

The same test, now with this note: enzalutamide-resistant LNCaP95 cells, 72 h, cell proliferation; read-out: IC50 (μM) LCaP95.
As for Niclosamide [reference compound], the half-maximal inhibitory concentration (IC50) turned out to be 0.372 µM.

The test system of the next test is AR. Briefly: Downregulation of AR in 22RV1 cells. Format: cell-based. The settings on record: 22RV1, enzalutamide-resistant prostate cancer cell line (FIG. 11).
`O=C(Nc1ccc(C(F)(F)F)c(C(F)(F)F)c1)c1cc(F)ccc1O` [ARi 4]: the “downregulation of AR” value is reported as “dose-dependent downregulation”.
For Niclosamide [reference compound], the “downregulation of AR” value is “dose-dependent downregulation”.
